The source of these data is paper PMC5218480 (PLoS ONE, 2017).

The test system of the assay is MV-4-11 cells. The experiment in a line: Gene expression microarray analysis (Affymetrix PrimeView) and GSEA. Format: cell-based, human. More on the design: RFU PODN (11730768_x_at) / Fold change /veh PODN (11730768_x_at) / RFU LINC00158 (11744669_a_at) / Fold change /veh LINC00158 (11744669_a_at) / RFU DUSP10 (11751237_a_at) / Fold change /veh DUSP10 (11751237_a_at) / RFU ID3 (11757404_x_at) / Fold change /veh ID3 (11757404_x_at) / RFU PLEKHG5 (11737974_s_at) / Fold change /veh PLEKHG5 (11737974_s_at) / RFU LRRC4B (11730491_at) / Fold change /veh LRRC4B (11730491_at) / RFU GIMAP4 (11747438_a_at) / Fold change /veh GIMAP4 (11747438_a_at) / RFU KRT8 (11758183_x_at) / Fold change /veh KRT8 (11758183_x_at) / RFU CNN1 (11734310_a_at) / Fold change /veh CNN1 (11734310_a_at) / RFU VPS37D (11726825_at) / Fold change /veh VPS37D (11726825_at) / RFU C10orf10 (11716522_x_at) / Fold change /veh C10orf10 (11716522_x_at) / RFU KIR2DL2 /// KIR2DL4 /// KIR2DL5A /// KIR2DL5B /// KIR2DS1 /// KIR2DS2 /// KIR2DS3 /// KIR2DS4 /// KIR3DL3 /// KIR3DL3 /// KIR3DS1 (11738374_at) / Fold change /veh KIR2DL2 /// KIR2DL4 /// KIR2DL5A /// KIR2DL5B /// KIR2DS1 /// KIR2DS2 /// KIR2DS3 /// KIR2DS4 /// KIR3DL3 /// KIR3DL3 /// KIR3DS1 (11738374_at) / RFU C1QL1 (11718748_at) / Fold change /veh C1QL1 (11718748_at) / RFU TMPRSS4 (11747572_a_at) / Fold change /veh TMPRSS4 (11747572_a_at) / RFU HAMP (11756126_x_at) / Fold change /veh HAMP (11756126_x_at) / RFU RNFT2 (11725882_a_at) / Fold change /veh RNFT2 (11725882_a_at) / RFU NR4A2 (11747474_a_at) / Fold change /veh NR4A2 (11747474_a_at) / RFU ABCC12 (11746883_a_at) / Fold change /veh ABCC12 (11746883_a_at) / RFU TMEM136 (11760407_x_at) / Fold change /veh TMEM136 (11760407_x_at) / RFU CLDN22 /// WWC2 (11732394_at) / Fold change /veh CLDN22 /// WWC2 (11732394_at) / RFU HLA-DPB1 (11760878_x_at) / Fold change /veh HLA-DPB1 (11760878_x_at) / RFU SPINT1 (11716480_a_at) / Fold change /veh SPINT1 (11716480_a_at) / RFU GAP43 (11754022_s_at) / Fold change /veh GAP43 (11754022_s_at) / RFU A4GNT (11735810_at) / Fold change /veh A4GNT (11735810_at) / RFU PRB3 (11715151_x_at) / Fold change /veh PRB3 (11715151_x_at) / RFU TUBB4B (11761932_at) / Fold change /veh TUBB4B (11761932_at) / RFU CAPN14 (11732068_a_at) / Fold change /veh CAPN14 (11732068_a_at) / RFU TMCC2 (11721928_a_at) / Fold change /veh TMCC2 (11721928_a_at) / RFU IRGQ (11745062_a_at) / Fold change /veh IRGQ (11745062_a_at) / RFU FAM174B (11720279_a_at) / Fold change /veh FAM174B (11720279_a_at) / RFU TMPRSS4 (11748680_a_at) / Fold change /veh TMPRSS4 (11748680_a_at) / RFU FAM212B (11763350_a_at) / Fold change /veh FAM212B (11763350_a_at) / RFU PLEKHG5 (11743358_a_at) / Fold change /veh PLEKHG5 (11743358_a_at) / RFU ZSCAN30 (11745921_a_at) / Fold change /veh ZSCAN30 (11745921_a_at) / RFU CMKLR1 (11741424_a_at) / Fold change /veh CMKLR1 (11741424_a_at) / RFU LOC101060620 /// MAPK8IP1 (11723275_at) / Fold change /veh LOC101060620 /// MAPK8IP1 (11723275_at) / RFU SPTSSB (11747773_x_at) / Fold change /veh SPTSSB (11747773_x_at) / RFU PRSS12 (11739890_at) / Fold change /veh PRSS12 (11739890_at) / RFU BIN1 (11741810_x_at) / Fold change /veh BIN1 (11741810_x_at) / RFU WNT11 (11732464_a_at) / Fold change /veh WNT11 (11732464_a_at) / RFU C10orf10 (11716521_a_at) / Fold change /veh C10orf10 (11716521_a_at) / RFU C5orf56 (11738089_at) / Fold change /veh C5orf56 (11738089_at) / RFU CYB561 (11721691_x_at) / Fold change /veh CYB561 (11721691_x_at) / RFU ANKRD19P (11752326_a_at) / Fold change /veh ANKRD19P (11752326_a_at) / RFU OR2T12 /// OR2T33 /// OR2T8 (11738714_s_at) / Fold change /veh OR2T12 /// OR2T33 /// OR2T8 (11738714_s_at) / RFU VCAN (11748164_a_at) / Fold change /veh VCAN (11748164_a_at) / RFU JSRP1 (11732532_at) / Fold change /veh JSRP1 (11732532_at) / RFU KRTAP10-11 (11738290_x_at) / Fold change /veh KRTAP10-11 (11738290_x_at) / RFU MYO3A (11730013_a_at) / Fold change /veh MYO3A (11730013_a_at) / RFU EBF3 (11725865_a_at) / Fold change /veh EBF3 (11725865_a_at) / RFU CAMK2N1 (11719241_x_at) / Fold change /veh CAMK2N1 (11719241_x_at) / RFU C5orf56 (11738088_a_at) / Fold change /veh C5orf56 (11738088_a_at) / RFU OLFML3 (11715873_a_at) / Fold change /veh OLFML3 (11715873_a_at) / RFU LOC100653217 /// NTM (11731650_a_at) / Fold change /veh LOC100653217 /// NTM (11731650_a_at) / RFU MAPK11 (11762145_a_at) / Fold change /veh MAPK11 (11762145_a_at) / RFU FIZ1 (11724087_x_at) / Fold change /veh FIZ1 (11724087_x_at) / RFU OASL (11726364_x_at) / Fold change /veh OASL (11726364_x_at) / RFU SOX15 (11748057_x_at) / Fold change /veh SOX15 (11748057_x_at) / RFU CD79A (11719716_a_at) / Fold change /veh CD79A (11719716_a_at) / RFU HIST1H1D (11736915_at) / Fold change /veh HIST1H1D (11736915_at) / RFU CASKIN2 (11723855_a_at) / Fold change /veh CASKIN2 (11723855_a_at) / RFU LOC730098 (11760151_x_at) / Fold change /veh LOC730098 (11760151_x_at) / RFU OR4N2 (11742367_at) / Fold change /veh OR4N2 (11742367_at) / RFU PRRT2 (11749266_a_at) / Fold change /veh PRRT2 (11749266_a_at) / RFU SNX32 (11753110_a_at) / Fold change /veh SNX32 (11753110_a_at) / RFU CDHR5 (11726645_a_at) / Fold change /veh CDHR5 (11726645_a_at) / RFU RCAN1 (11760418_a_at) / Fold change /veh RCAN1 (11760418_a_at) / RFU FAM167A (11723789_a_at) / Fold change /veh FAM167A (11723789_a_at) / RFU FAM26E (11764081_at) / Fold change /veh FAM26E (11764081_at) / RFU ISYNA1 (11749810_s_at) / Fold change /veh ISYNA1 (11749810_s_at) / RFU ACY1 (11761880_at) / Fold change /veh ACY1 (11761880_at) / RFU 11764098_at / Fold change /veh 11764098_at / RFU SAMD14 (11745864_x_at) / Fold change /veh SAMD14 (11745864_x_at) / RFU NPB (11741838_a_at) / Fold change /veh NPB (11741838_a_at) / RFU TMPRSS6 (11731388_a_at) / Fold change /veh TMPRSS6 (11731388_a_at) / RFU KRTAP10-2 (11738614_at) / Fold change /veh KRTAP10-2 (11738614_at) / RFU ARHGAP8 /// PRR5-ARHGAP8 (11727945_x_at) / Fold change /veh ARHGAP8 /// PRR5-ARHGAP8 (11727945_x_at) / RFU KRTAP5-7 /// NADSYN1 (11734609_at) / Fold change /veh KRTAP5-7 /// NADSYN1 (11734609_at) / RFU RASL12 (11751679_a_at) / Fold change /veh RASL12 (11751679_a_at) / RFU CDKN2B (11736163_a_at) / Fold change /veh CDKN2B (11736163_a_at) / RFU PRF1 (11729649_at) / Fold change /veh PRF1 (11729649_at) / RFU, ZNF638 /// ZNF638-IT1 / Fold change vs veh, ZNF638 /// ZNF638-IT1 / RFU, PANK3 / Fold change vs veh, PANK3 / RFU, SH3YL1 / Fold change vs veh, SH3YL1 / RFU, ZEB2 / Fold change vs veh, ZEB2 / RFU, NRIP1 / Fold change vs veh, NRIP1 / RFU, PTTG1IP / Fold change vs veh, PTTG1IP / RFU, CAPN2 / Fold change vs veh, CAPN2 / RFU, MED14 / Fold change vs veh, MED14 / RFU, SNORA58 / Fold change vs veh, SNORA58 / RFU, C1orf63 / Fold change vs veh, C1orf63 / RFU, LRRFIP1 / Fold change vs veh, LRRFIP1 / RFU, NDUFAF7 / Fold change vs veh, NDUFAF7 / RFU, SLC12A2 / Fold change vs veh, SLC12A2 / RFU, IBTK / Fold change vs veh, IBTK / RFU, ESF1 / Fold change vs veh, ESF1 / Fold change vs veh, TMEM50B / RFU, TAOK1 / Fold change vs veh, TAOK1 / RFU, ACBD3 / Fold change vs veh, ACBD3 / RFU, TMA16 / Fold change vs veh, TMA16 / RFU, RWDD3 / Fold change vs veh, RWDD3 / RFU, BCAT1 / Fold change vs veh, BCAT1 / RFU, EDEM3 / Fold change vs veh, EDEM3 / RFU, TMEM33 / Fold change vs veh, TMEM33 / RFU, WDR75 / Fold change vs veh, WDR75 / RFU, AHCTF1 / Fold change vs veh, AHCTF1 / RFU, TFRC / Fold change vs veh, TFRC / RFU, ZDHHC17 / Fold change vs veh, ZDHHC17 / RFU, NOM1 / Fold change vs veh, NOM1 / RFU, ARL8B / Fold change vs veh, ARL8B / RFU, ZBTB11 / Fold change vs veh, ZBTB11 / RFU, TAMM41 / Fold change vs veh, TAMM41 / RFU, KIAA1704 /// LOC100996395 / Fold change vs veh, KIAA1704 /// LOC100996395 / RFU, ING1 / Fold change vs veh, ING1 / RFU, TRMT61B / Fold change vs veh, TRMT61B / RFU, FUBP3 / Fold change vs veh, FUBP3 / RFU, TP53 / Fold change vs veh, TP53 / RFU, TNKS2 / Fold change vs veh, TNKS2 / RFU, ZFP14 / Fold change vs veh, ZFP14 / RFU, ACTR2 / Fold change vs veh, ACTR2 / RFU, PPP3R1 / Fold change vs veh, PPP3R1 / RFU, PIK3R1 / Fold change vs veh, PIK3R1 / RFU, HNRNPA1 / Fold change vs veh, HNRNPA1 / RFU, RNF170 / Fold change vs veh, RNF170 / RFU, ZNF28 / Fold change vs veh, ZNF28 / RFU, RNGTT / Fold change vs veh, RNGTT / RFU, OGT / Fold change vs veh, OGT / RFU, BRD1 / Fold change vs veh, BRD1 / RFU, MARS / Fold change vs veh, MARS / RFU, ZNF655 / Fold change vs veh, ZNF655 / RFU, FAHD1 / Fold change vs veh, FAHD1 / RFU, BDP1 / Fold change vs veh, BDP1 / RFU, LRRCC1 / Fold change vs veh, LRRCC1 / RFU, ARID1A / Fold change vs veh, ARID1A / RFU, ZNF146 / Fold change vs veh, ZNF146 / RFU, ZNF330 / Fold change vs veh, ZNF330 / RFU, GPN3 / Fold change vs veh, GPN3 / RFU, C9orf123 / Fold change vs veh, C9orf123 / RFU, N4BP2L2 / Fold change vs veh, N4BP2L2 / RFU, ARFIP1 / Fold change vs veh, ARFIP1 / RFU, FAM179B / Fold change vs veh, FAM179B / RFU, BCL10 / Fold change vs veh, BCL10 / RFU, UHRF1BP1L / Fold change vs veh, UHRF1BP1L / RFU, BET1 / Fold change vs veh, BET1 / RFU, CNOT2 / Fold change vs veh, CNOT2 / RFU, ZNF268 / Fold change vs veh, ZNF268 / Fold change vs veh, ZNF507 / RFU, DGCR2 / Fold change vs veh, DGCR2 / RFU, WDSUB1 / Fold change vs veh, WDSUB1 / Fold change vs veh, HSP90B1 /// MIR3652 / RFU, ADSS / Fold change vs veh, ADSS / RFU, GK / Fold change vs veh, GK / RFU, ZNF148 / Fold change vs veh, ZNF148 / RFU, TAF9 / Fold change vs veh, TAF9 / RFU, SLC1A5 / Fold change vs veh, SLC1A5 / RFU, SLMO2 / Fold change vs veh, SLMO2 / RFU, ABCC4 / Fold change vs veh, ABCC4 / RFU, LOC101060439 /// RAP1B / Fold change vs veh, LOC101060439 /// RAP1B / RFU, RFX7 / Fold change vs veh, RFX7 / RFU, GTPBP10 / Fold change vs veh, GTPBP10 / RFU, CNEP1R1 / Fold change vs veh, CNEP1R1 / RFU, BIVM-ERCC5 /// ERCC5 / Fold change vs veh, BIVM-ERCC5 /// ERCC5 / RFU, ILF3 / Fold change vs veh, ILF3 / RFU 11762660_at / Fold change /veh 11762660_at / RFU VCAN (11757783_s_at) / Fold change /veh VCAN (11757783_s_at) / RFU DDX43 (11728927_at) / Fold change /veh DDX43 (11728927_at) / RFU KRT8 (11758188_x_at) / Fold change /veh KRT8 (11758188_x_at) / RFU NKD1 (11759106_at) / Fold change /veh NKD1 (11759106_at) / RFU SRD5A1 (11742802_a_at) / Fold change /veh SRD5A1 (11742802_a_at) / RFU TPSAB1 /// TPSB2 (11721975_s_at) / Fold change /veh TPSAB1 /// TPSB2 (11721975_s_at) / RFU GSTM3 (11746129_a_at) / Fold change /veh GSTM3 (11746129_a_at) / RFU IL23R (11737362_x_at) / Fold change /veh IL23R (11737362_x_at) / RFU TMEM51 (11727254_a_at) / Fold change /veh TMEM51 (11727254_a_at) / RFU PIWIL2 (11732686_x_at) / Fold change /veh PIWIL2 (11732686_x_at) / RFU ORM1 (11744905_x_at) / Fold change /veh ORM1 (11744905_x_at) / RFU CCDC152 (11743942_at) / Fold change /veh CCDC152 (11743942_at) / RFU ECM1 (11717891_a_at) / Fold change /veh ECM1 (11717891_a_at) / RFU IL23R (11748794_a_at) / Fold change /veh IL23R (11748794_a_at) / RFU TNFAIP8L3 (11732012_x_at) / Fold change /veh TNFAIP8L3 (11732012_x_at) / RFU MBOAT4 (11741988_at) / Fold change /veh MBOAT4 (11741988_at) / RFU 11764193_at / Fold change /veh 11764193_at / RFU TMEM53 (11763286_at) / Fold change /veh TMEM53 (11763286_at) / RFU MAGEB2 (11727129_at) / Fold change /veh MAGEB2 (11727129_at) / RFU TMEM200A (11744735_a_at) / Fold change /veh TMEM200A (11744735_a_at) / RFU CCDC152 (11751479_a_at) / Fold change /veh CCDC152 (11751479_a_at) / RFU FAM211A (11726209_a_at) / Fold change /veh FAM211A (11726209_a_at) / RFU RGS16 (11746705_a_at) / Fold change /veh RGS16 (11746705_a_at) / RFU VCAN (11755009_s_at) / Fold change /veh VCAN (11755009_s_at) / RFU RHOB (11743442_s_at) / Fold change /veh RHOB (11743442_s_at) / RFU RGS16 (11720943_a_at) / Fold change /veh RGS16 (11720943_a_at) / RFU RGS16 (11720944_at) / Fold change /veh RGS16 (11720944_at) / RFU, VPS4B / Fold change vs veh, VPS4B / RFU, CREB1 / Fold change vs veh, CREB1 / RFU, DNAJC13 / Fold change vs veh, DNAJC13 / RFU, GNAQ / Fold change vs veh, GNAQ / RFU, CDK5R1 / Fold change vs veh, CDK5R1 / RFU, ZRANB3 / Fold change vs veh, ZRANB3 / RFU, CUL4A / Fold change vs veh, CUL4A / RFU, CCNY / Fold change vs veh, CCNY / RFU, UFL1 / Fold change vs veh, UFL1 / RFU, COG3 / Fold change vs veh, COG3 / RFU, DIAPH2 / Fold change vs veh, DIAPH2 / RFU, SKA2 / Fold change vs veh, SKA2 / RFU, AFF3 / Fold change vs veh, AFF3 / RFU, LMF1 / Fold change vs veh, LMF1 / RFU, IPO11 / Fold change vs veh, IPO11 / RFU, DFFB / Fold change vs veh, DFFB / RFU, FOXP1 / Fold change vs veh, FOXP1 / RFU, CARD8 / Fold change vs veh, CARD8 / RFU, STRN3 / Fold change vs veh, STRN3 / RFU, ADK / Fold change vs veh, ADK / RFU, RASSF2 / Fold change vs veh, RASSF2 / RFU, WIPF1 / Fold change vs veh, WIPF1 / RFU, LARP1B / Fold change vs veh, LARP1B / RFU, RASA1 / Fold change vs veh, RASA1 / RFU, RB1 / Fold change vs veh, RB1 / RFU, PPFIA1 / Fold change vs veh, PPFIA1 / RFU, MAT2A / Fold change vs veh, MAT2A / RFU, CCT5 / Fold change vs veh, CCT5 / RFU, WDR92 / Fold change vs veh, WDR92 / RFU, CUX1 / Fold change vs veh, CUX1 / RFU, TTC7A / Fold change vs veh, TTC7A / RFU, TMEM135 / Fold change vs veh, TMEM135 / RFU, DEPTOR / Fold change vs veh, DEPTOR / RFU, CPM / Fold change vs veh, CPM / RFU, DNAJB6 / Fold change vs veh, DNAJB6 / RFU, CACNA2D3 / Fold change vs veh, CACNA2D3 / RFU, DTX4 / Fold change vs veh, DTX4 / RFU, TFCP2 / Fold change vs veh, TFCP2 / RFU, GMCL1 /// GMCL1P1 / Fold change vs veh, GMCL1 /// GMCL1P1 / RFU, AEBP2 / Fold change vs veh, AEBP2 / RFU, SNHG1 /// SNORD22 /// SNORD25 /// SNORD26 /// SNORD27 /// SNORD28 /// SNORD29 /// SNORD31 / Fold change vs veh, SNHG1 /// SNORD22 /// SNORD25 /// SNORD26 /// SNORD27 /// SNORD28 /// SNORD29 /// SNORD31 / Fold change (Aza/veh), C12orf56 (ProbeSet 11735607_a_at) / Fold change (ACY-1035/veh), C12orf56 (ProbeSet 11735607_a_at) / Fold change (Aza/veh), FGFR1OP (ProbeSet 11751329_s_at) / Fold change (ACY-1035/veh), FGFR1OP (ProbeSet 11751329_s_at) / Fold change (Aza/veh), VPS36 (ProbeSet 11739960_a_at) / Fold change (ACY-1035/veh), VPS36 (ProbeSet 11739960_a_at) / RFU SYPL1 (11715823_x_at) / Fold change /veh SYPL1 (11715823_x_at) / RFU IGFBP7 (11715501_s_at) / Fold change /veh IGFBP7 (11715501_s_at) / RFU REEP3 (11722064_at) / Fold change /veh REEP3 (11722064_at) / RFU IGLL1 (11728026_x_at) / Fold change /veh IGLL1 (11728026_x_at): dose or concentration left out as unconfirmed. Particulars: ProbeSet 11760938_a_at; LIST D.

On to `Nc1ccc(-c2cccs2)cc1NC(=O)c1ccc2c(c1)cc(C1CC1)n2CCN1CCOCC1` [ACY-1035], for which the “RFU, MAT2A” value was 163.17 RFU.
